From ChEMBL document CHEMBL6153059, “Discovery of a Potent Triazole-Based Reversible Targeted Covalent Inhibitor of Cruzipain” (ACS Med Chem Lett, 2025) come the findings set out here.

As usually defined, the inhibition is the percentage by which the read-out fell short of the control. One may read the pKa as the pH at which an ionisable group is half protonated. The IC50 is the concentration that gives 50% inhibition.

Series [1] has as its target Cruzipain (Trypanosoma cruzi) (UniProt P25779). The series is described as follows: Inhibition of Trypanosoma cruzi cruzain at 100 uM using Z-FR-AMC as substrate measured every 5 secs for 10 mins by fluorimetry.
For series [2] the target is unchanged. The series is described as follows: Inhibition of Trypanosoma cruzi cruzain at 100 uM using Z-FR-AMC as substrate preincubated for 10 mins followed by substrate addition and measured every 5 secs for 10 mins by fluorimetry. The following applies: time 20.0 min.
The nature of series [3]: Dissociation constant, pKa of the compound for carboxyl group by potentiometric titration analysis. The series is classed as physicochemical.
Another series has as its target Cruzipain (Trypanosoma cruzi, UniProt P25779). The series is described as follows: Inhibition of Trypanosoma cruzi cruzain using Z-FR-AMC as substrate preincubated for 10 mins followed by substrate addition and measured every 5 secs for 10 mins by fluorimetry.
For another series, the target named is cathepsin L (Homo sapiens, UniProt P07711). The series is described as follows: Inhibition of recombinant human cathepsin L expressed in FreeStyle 293-F cells using Z-FR-AMC as substrate at 100 uM preincubated for 10 mins followed by substrate addition and measured for 20 mins by fluorimetry. The following applies: probe Z-FR-AMC, time 30 min.
Series [4] deals with Cruzipain (Trypanosoma cruzi) (UniProt P25779). The series is described as follows: Covalent reversible inhibition of Trypanosoma cruzi cruzain assessed as recovery of enzyme activity using Z-FR-AMC as substrate at 0.1XIC50 and measured for 2 hrs by jump dilution assay.
Series [5] relates to Trypanosoma cruzi. The series is described as follows: Antitrypanosomal activity against Trypanosoma cruzi Tulahuen trypomastigotes expressing Escherichia coli beta-galactosidase infected in African green monkey Vero cells at 50 uM incubated for 72 hrs by ONPG dye based microplate reader analysis. The format is functional.
The subject of series [6] is Trypanosoma cruzi. The series is described as follows: Antitrypanosomal activity against Trypanosoma cruzi Tulahuen trypomastigotes expressing Escherichia coli beta-galactosidase infected in African green monkey Vero cells at 10 uM incubated for 72 hrs by ONPG dye based microplate reader analysis. The format is functional.
Series [7] addresses Cruzipain (Trypanosoma cruzi) (UniProt P25779). The series is described as follows: Covalent reversible inhibition of Trypanosoma cruzi cruzain using Z-FR-AMC as substrate at 0.1XIC50 and measured at 10 mins post-dilution by jump dilution assay.
Series [8] has as its system Trypanosoma cruzi. The series is described as follows: Antitrypanosomal activity against Trypanosoma cruzi Tulahuen trypomastigotes expressing Escherichia coli beta-galactosidase infected in African green monkey Vero cells incubated for 72 hrs by ONPG dye based microplate reader analysis. The format is functional, organism-based.
The nature of series [9]: Cytotoxicity against African green monkey Vero cells assessed as cell viability at 50 uM incubated for 96 hrs by resazurin dye based fluorescence analysis relative to control. The series is classed as toxicity. Particulars: chlorocebus sabaeus, read-out: Activity. (Alamar Blue is a resazurin reagent that responds to reducing activity.)
A short description of series [10]: Dissociation constant, pKa of the compound for secondary ammonium by potentiometric titration analysis. The series is classed as physicochemical.

Activity calls are given as the source filed them. The rule behind the calls is not given here.

Sequence of Cruzipain (Trypanosoma cruzi) (P25779 123-467 limits assumed): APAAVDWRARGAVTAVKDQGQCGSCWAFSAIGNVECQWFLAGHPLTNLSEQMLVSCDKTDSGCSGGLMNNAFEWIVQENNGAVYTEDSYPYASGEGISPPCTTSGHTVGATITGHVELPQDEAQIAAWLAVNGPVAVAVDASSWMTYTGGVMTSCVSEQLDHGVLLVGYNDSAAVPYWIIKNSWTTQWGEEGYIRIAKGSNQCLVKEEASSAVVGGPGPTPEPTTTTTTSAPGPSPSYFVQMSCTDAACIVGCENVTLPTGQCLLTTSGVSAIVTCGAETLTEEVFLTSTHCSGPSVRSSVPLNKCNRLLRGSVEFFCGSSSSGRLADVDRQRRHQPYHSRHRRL
Sequence of cathepsin L (P07711 whole entry): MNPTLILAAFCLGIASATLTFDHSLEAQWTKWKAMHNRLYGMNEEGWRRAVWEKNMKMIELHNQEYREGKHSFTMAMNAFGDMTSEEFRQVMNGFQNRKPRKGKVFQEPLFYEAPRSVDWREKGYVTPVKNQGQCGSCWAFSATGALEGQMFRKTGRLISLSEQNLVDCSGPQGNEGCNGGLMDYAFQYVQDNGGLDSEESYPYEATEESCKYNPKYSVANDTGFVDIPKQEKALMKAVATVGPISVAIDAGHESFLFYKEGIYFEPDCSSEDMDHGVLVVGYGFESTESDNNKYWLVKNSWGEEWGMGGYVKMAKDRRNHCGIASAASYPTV
Sequence of Cruzipain (P25779 whole entry): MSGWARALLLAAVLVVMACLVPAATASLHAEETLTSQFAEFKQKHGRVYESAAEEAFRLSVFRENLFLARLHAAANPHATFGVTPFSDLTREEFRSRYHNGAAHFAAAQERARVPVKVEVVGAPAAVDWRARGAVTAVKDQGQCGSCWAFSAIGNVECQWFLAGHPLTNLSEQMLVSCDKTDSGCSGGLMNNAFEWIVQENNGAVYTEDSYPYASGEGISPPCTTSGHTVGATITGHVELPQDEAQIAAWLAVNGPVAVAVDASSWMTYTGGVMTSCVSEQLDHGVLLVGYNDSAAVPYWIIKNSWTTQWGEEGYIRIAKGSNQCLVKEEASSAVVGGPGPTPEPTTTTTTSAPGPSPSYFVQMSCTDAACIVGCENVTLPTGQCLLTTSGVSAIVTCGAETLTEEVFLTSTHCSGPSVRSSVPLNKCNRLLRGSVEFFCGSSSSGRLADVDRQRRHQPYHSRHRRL

Consider `CC(C)[C@H](CS)n1cc(C(NCc2ccc3c(c2)OCO3)C2CCCCC2)nn1` (stereo partly drawn), for which the inhibition was 6% in series [1] and 43% in series [2].
For `O=C(O)[C@H](CSC(c1ccccc1)(c1ccccc1)c1ccccc1)n1cc(C(NCc2ccc3c(c2)OCO3)C2CCCCC2)nn1` (stereo partly drawn), the pKa in series [3] was determined as 3. This compound also came in with an IC50 against Cruzipain of 6 µM. On cathepsin L, the inhibition at 20 min, 100 µM was determined as 100%.
With `SC[C@@H](Cc1ccccc1)n1cc(C(NCc2ccc3c(c2)OCO3)C2CCCCC2)nn1` (stereo partly drawn), the inhibition was 12% in series [1] and 79% in series [2]. The same compound registered an IC50 on Cruzipain of 7 µM. At cathepsin L, the inhibition at 20 min, 100 µM was found to be 0%.
Compound `COc1ccc(COC(=O)[C@H](CS)n2cc(C(NCc3ccc4c(c3)OCO4)C3CCCCC3)nn2)cc1` (stereo partly drawn) yielded an inhibition in series [2] of 28%.
On to `COC(=O)[C@H](CS)n1cc(C(NCc2ccc3c(c2)OCO3)C2CCCCC2)nn1` (stereo partly drawn), for which the inhibition is 6% in series [1] and 53% in series [2].
Consider `CCOC(=O)[C@H](CS)n1cc(C(NCc2ccc3c(c2)OCO3)C2CCCCC2)nn1` (stereo partly drawn), for which the inhibition in [1] came out at 3%; in series [2] it was 46%.
Take `O=C(O)[C@H](CS)n1cc(C(NCc2ccc3c(c2)OCO3)C2CCCCC2)nn1` (stereo partly drawn): the pKa in series [3] was 4; in series [10], 8.1. Also, the inhibition entry in series [4] is “Active”. The inhibition in [1] came out at 13%; in series [2], 100%. In the series with Trypanosoma cruzi [5], this compound gave an inhibition at 50 µM of 98%. For the same compound, the inhibition at 10 µM in the series on Trypanosoma cruzi [6] was 76%. For the same compound, the inhibition result in [7] is “inactive”. For the same compound, the results for the IC50 in the series on Trypanosoma cruzi [8] and against Cruzipain were 6.67 µM and 0.028 µM, respectively. On cathepsin L, the inhibition at 20 min, 100 µM was determined as 0%. Moreover, the viability at 96 h, 50 µM in series [9] turned out to be 80%.
Regarding `NCCCC[C@@H](C=O)n1cc(C(NCc2ccc3c(c2)OCO3)C2CCCCC2)nn1` (stereo partly drawn), the IC50 in the series with Trypanosoma cruzi [8] came to 3.2 µM; on Cruzipain it was 3.3 µM.
